Data reported in patent US20240316069A1, “METHODS OF TREATING MULTIPLE SCLEROSIS” (ASCENTAGE PHARMA (SUZHOU) CO., LTD., priority 2020, published 2024).
Entries after “also recorded” stand apart in the source; their conditions may differ.

Columns and labels:
[1] = system: MOG35-55 induced experimental autoimmune encephalomyelitis (EAE) model in C57BL/6 mice; experiment: Clinical scores in MOG35-55 induced EAE model; type: in vivo
[2] = system: MOG35-55 induced experimental autoimmune encephalomyelitis (EAE) model in C57BL/6 mice; experiment: Histopathologic assessment of spinal cord, LFB staining (demyelination) in EAE model; type: in vivo; settings: for LFB staining score: day 21, spinal cord, scoring 0 to 4
Description: (§1) The mice were anesthetized with isoflurane and immunized with 300 μg MOG 35-55 peptide emulsified (1:1) in […] Freund's adjuvant with 600 μg Mycobacterium tuberculosis. Each mouse received 0.05 ml emulsion (s.c.) at four sites (back shoulder and tail root). The mice were further intraperitoneally injected with 250 μL pertussis toxin (1 μg/mL) at 0 h and 48 h post immunization. The day when MOG 35-55 peptide was injected was set as day 1.
(§2) Mice in Group 1 were treated with vehicle for 20 days (po, qd, from day 1-20). Mice in Group 2, Group 3 and Group 4 were treated with 100 mg/kg Compound 4 for 20 days (po, qd, from day 1-20), 14 days (po, qd, from day 7-20) and 7 days (po, qd, from day 14-20) respectively. FTY720 was used as positive control which was orally administered to mice in Group 5 for 20 days (qd, from day 1-20). The protocols and procedures involving the care and use of animals were approved by the Institutional Animal Care and Use Committee (IACUC) at Bioduro (Shanghai, China). The information of each group is as follows.
(§3) At the end of the study (day 21), all the animals were sacrificed by CO2, and the spinal cords were collected and fixed in 10% formalin for pathological analysis (H&E and LFB staining). The histopathological score was evaluated microscopically in a blinded manner.
The structure and morphology of spinal cord was evaluated by LFB staining using a scoring system from 0 to 4: 0 represents for no demyelination; 1, a small range of demyelination; 2, 2-3 small range of demyelination; 3, 1-2 large range of demyelination; 4, large-scale demyelination involves more than 20% of white matter areas.

[3] = system: MOG35-55 induced experimental autoimmune encephalomyelitis (EAE) model in C57BL/6 mice; experiment: Histopathologic assessment of spinal cord, H&E staining (inflammation) in EAE model; type: in vivo; settings: for H&E staining score: day 21, spinal cord, scoring 0 to 4
Description: as §1, §2, §3
The inflammation of spinal cord was evaluated by H&E staining using a scoring system from 0 to 4: 0, no inflammatory cell infiltration; 1, inflammatory cell infiltration is limited to perivascular and […]; 2, small amount of inflammatory cell infiltration in the spinal cord; 3, medium number of inflammatory cell infiltration in the spinal cord; 4, large number of inflammatory cell infiltration in the spinal cord.

[4] = system: peripheral blood mononuclear cell (PBMC); experiment: Flow cytometry of PBMC lymphocyte subtypes in EAE model; type: in vivo, C57BL/6 mice; settings: 100 mg/kg; day 21
[5] = clinical application; cited from earlier work
[6] = 100 mg/kg po qd, 7 days (d14-d20)
[7] = 100 mg/kg po qd, 14 days (d7-d20)
[8] = 100 mg/kg po qd, 20 days (d1-d20)

SMILES	clinical score ([1]; 100 mg/kg po qd, 14 days (d7-d20, Group 3), end of the study (day 21), scoring 0 to 5)	clinical score of EAE (result in words) ([1]; 100 mg/kg po qd, either of the three regimens (20, 14, 7 days))	LFB staining score [2, 6]	LFB staining score [2, 7]	LFB staining score [2, 8]	LFB staining scores (result in words) ([2]; FIG. 2 legend, regimen not stated)	H&E staining score [3, 6]	H&E staining score [3, 7]	H&E staining score [3, 8]	H&E staining scores (result in words) ([3]; FIG. 3 legend, regimen not stated)	number of B lymphocytes (CD45+CD3-B220+) in the PBMC [4]	number of CD4+ T lymphocytes (CD45+CD3+CD4+) in the PBMC [4]	number of CD8+ T lymphocytes (CD45+CD3+CD8+) in the PBMC [4]	number of T lymphocytes (CD45+CD3+) in the PBMC [4]	number of double negative T lymphocytes (CD45+CD3+CD4-CD8−) in the PBMC [4]	number of leukocytes (CD45+) in the PBMC [4]	symptoms of multiple sclerosis (clinical score, result in words) ([1]; 1 mpk po qd x 20 d (d1-d20), Group 5, entire experiment)	LFB staining score ([2]; 1 mpk po qd x 20 d (d1-d20))	H&E staining score ([3]; 1 mpk po qd x 20 d (d1-d20))	cardiovascular toxicity [5]
O=C(NS(=O)(=O)c1ccc(NC[C@H]2COCCO2)c([N+](=O)[O-])c1)c1ccc(N2CCN(CC3=C(c4ccc(Cl)cc4)CC4(CCC4)CC3)CC2)cc1Oc1cnc2[nH]ccc2c1 [Compound 4, (S)-N-((4-(((1,4-dioxan-2-yl)methyl)amino)-3-nitrophenyl)sulfonyl)-2-((1H-pyrrolo[2,3-b]pyridin-5-yl)oxy)-4-(4-((6-(4-chlorophenyl)spiro[3.5]non-6-en-7-yl)methyl)piperazin-1-yl)benzamide]	2.00±0.58	significantly reducing the clinical score of EAE; also recorded: reduced the clinical scores	1.30±0.37	1.33±0.44	1.80±0.29	reduced the LFB staining scores	2.10±0.41	1.11±0.33	2.00±0.39	reduced the H&E staining scores	significantly reduced	significantly reduced	significantly reduced	significantly reduced	significantly reduced	significantly reduced	–	–	–	–
CCCCCCCCc1ccc(CCC(N)(CO)CO)cc1.Cl [FTY720, reference compound]	–	–	–	–	–	–	–	–	–	–	–	–	–	–	–	–	no mice developing symptoms of multiple sclerosis	0	0	obvious cardiovascular toxicity
